Measured values taken from USRE47193E1, “Selectively substituted quinoline compounds” (EISAI R&D MANAGEMENT CO., LTD., priority 2013, dated 2019).
“And” between values parts separate entries of the source, which are not always exact repeats. Equal values may be shown once. Read-outs that look alike come from different tables or passages of the source.

Columns and labels:
TLR7/8 [1] = system: T1, TLR7/8; test: Subsequent human PBMC assay, various TLR7/8 ligands, IL-6 and IFN-α blockade; type: cell-based
T1 construct: other: human PBMC; ligand SL4-Ig; individual donors 1-6; average of donors; ligand RNA40-DOTAP; individual donors; ligand R848; ligand
Procedure: (§1) Human PBMC Cell-Based Assay. Human peripheral blood mononuclear cells (PBMC) were isolated from freshly-drawn heparinized (10 USP units/ml, Hospira, Lakeforest, Ill.) healthy donor whole blood by density gradient (Histopaque® 1077, Sigma, Inc., St. Louis, Mo.). Briefly, 25 ml blood was diluted with 15 ml PBS (without Ca^2+, Mg^2+) in a 50 ml conical tube, and 12 ml Histopaque was underlaid using a spinal needle. Tubes were centrifuged for 45 minutes at 1200 rpm (350×g), and PBMC were collected from the buffy coat. Cells were then washed twice in PBS, and red blood cells were lysed by suspension in 5 ml ammonium chloride solution (1× Red Blood Cell Lysis Buffer, eBioscience) for 5 minutes at room temperature. After a final wash in PBS, PBMC were resuspended at a final concentration of 2×10^6/ml in RPMI-1640 media with L-glutamine (Invitrogen) and supplemented with 25 mM HEPES (Mediatech, Inc, Manassas Va.), 10% fetal bovine serum (HyClone, Logan, Utah), and Penicillin-Streptomycin-Glutamine (Mediatech) and plated at 100 ul/well (2×10^5 cells/well) in tissue culture treated 96-well plates (Falcon).
(§2) Antagonist compounds solubilized and serial diluted in 100% DMSO were added in triplicate to cells to yield a final concentration of 0.1% DMSO (v/v). Hydroxychloroquine (Acros Organics) solubilized and serial diluted in PBS was added in triplicate to cells. PBMC were incubated with antagonist compounds or HCQ for 30 minutes at 37° C., 5% CO2 before adding various TLR agonist reagents in 100 ul complete media per well as follows (final concentrations indicated): R848 (Resiquimod; GLSynthesis, Worcester, Mass.) at 1 uM for TLR7 and TLR8, LPS (Sigma) at 10 ng/ml for TLR4, and CpG-2216 (InvivoGen) at 5 ug/ml for TLR9. To prepare a TLR7/8 agonist that mimics RNA-containing auto-antibody immune complexes in lupus patients, a 26-mer RNA with a sequence derived from human U1 snRNA stem loop IV [(sequence: […]-[…] (SEQ ID NO: 2) with phosphorothioate backbone] was synthesized (Dharmacon, Inc., Lafayette, Colo.), which has been shown previously to be a potent TLR7 and TLR8 agonist. This RNA molecule was diluted to 2.5 μM in serum-free RPMI, and mouse anti-human single stranded DNA monoclonal antibody (MAB3034, Millipore, Inc., Billerica, Mass.), which also cross-reacts with RNA, was added at a 1:25 dilution or at 1 ug/ml. The resulting “RNA-Ig” stimulus was incubated at room temperature for 15-30 minutes before adding to cells. PBMC were incubated with the various TLR agonists for 20 hours at 37° C., 5% CO2. Cell culture supernatants were collected, and levels of various human cytokines were assessed as indicated by standard ELISA procedure according to the manufacturer's recommended protocol (BD Biosciences, Inc., San Diego, Calif.). In a subsequent assay (Table 6) the ability of ER-899742 to block stimulation of normal PBMC by various TLR7/8 ligands, but not DNA-mediated activation of TLR9, was examined. In this assay cells were plated at 1×10^5 cells/well in 100 ul in 96-well plates.

TLR7/8 [2] = system: T2, TLR7/8; test: as above; type: cell-based
T2 construct: other: human PBMC; ligand SL4-Ig; individual donors 1-6; average of donors; ligand RNA40-DOTAP; individual donors; ligand R848; ligand R848
Procedure: as §1, §2

[3] = read-out: IC50 IFN-α Ave., ligand R848, average of donors
[4] = read-out: IC50 IFN-α Ave., ligand RNA40-DOTAP, average of donors
[5] = read-out: IC50 IFN-α Ave., ligand SL4-Ig, average of donors
[6] = read-out: IC50 IL-6 Ave., ligand R848, average of donors
[7] = read-out: IC50 IL-6 Ave., ligand RNA40-DOTAP, average of donors
[8] = read-out: IC50 IL-6 Ave., ligand SL4-Ig, average of donors

Row | SMILES | IC50 (TLR7/8 [1]; [3]) [nM] | IC50 (TLR7/8 [1]; [4]) [nM] | IC50 (TLR7/8 [1]; [5]) [nM] | IC50 (TLR7/8 [1]; read-out: IC50 IFN-α, ligand R848, individual donors) | IC50 (TLR7/8 [1]; read-out: IC50 IFN-α, ligand RNA40-DOTAP, individual donors) | IC50 (TLR7/8 [1]; read-out: IC50 IFN-α, ligand SL4-Ig, individual donors 1-6) | IC50 (TLR7/8 [2]; read-out: IC50 IL-6, ligand R848, individual donors) [nM] | IC50 (TLR7/8 [2]; read-out: IC50 IL-6, ligand RNA40-DOTAP, individual donors) | IC50 (TLR7/8 [2]; read-out: IC50 IL-6, ligand SL4-Ig, individual donors 1-6) | IC50 (TLR7/8 [2]; [6]) [nM] | IC50 (TLR7/8 [2]; [7]) [nM] | IC50 (TLR7/8 [2]; [8]) [nM] | IC50 (TLR7/8 [1]; read-out: IC50 IFN-α, ligand R848, individual donors, hydrochloride) | IC50 (TLR7/8 [1]; read-out: IC50 IFN-α, ligand RNA40-DOTAP, individual donors, hydrochloride) | IC50 (TLR7/8 [1]; read-out: IC50 IFN-α, ligand SL4-Ig, individual donors 1-6, hydrochloride) | IC50 (TLR7/8 [2]; read-out: IC50 IL-6, ligand R848, individual donors, hydrochloride) | IC50 (TLR7/8 [2]; read-out: IC50 IL-6, ligand RNA40-DOTAP, individual donors, hydrochloride) | IC50 (TLR7/8 [2]; read-out: IC50 IL-6, ligand SL4-Ig, individual donors 1-6, hydrochloride)
1 | CCN(CCO)CCCC(C)Nc1ccnc2cc(Cl)ccc12 (stereo not drawn) [HCQ, hydroxychloroquine, reference compound] | 1950 | 598 | 392 | 1250 nM and 2570 nM and 2030 nM | 490 nM and 410 nM and 990 nM and 502 nM | 459 nM and 324 nM | > 10000 | 10000 nM and 10800 nM and > 10000 nM and 15500 nM and 18000 nM and 6100 nM | 5200 nM and 3700 nM and 3200 nM and 3600 nM and 4300 nM and 4600 nM | > 10000 | 12100 | 4100 |  |  |  |  |  | 
2 | C[C@@H]1CN(c2ccc(C#N)c3ncccc23)C[C@H](C(=O)N[C@H]2CNC[C@H]2F)O1.Cl [ER-899742, (2R,6R)-4-(8-cyanoquinolin-5-yl)-N-[(3S,4R)-4-fluoropyrrolidin-3-yl]-6-methylmorpholine-2-carboxamide hydrochloride] | 11 | 13.9 | 1.4 |  |  |  |  |  |  | 5.9 | 31.3 | 4.2 | 12 nM and 11 nM and 10 nM | 9.6 nM and 18 nM and 11 nM and 17 nM | 2.2 nM and 0.5 nM | 6.5 nM and 7 nM and 4.9 nM and 5.5 nM and 8.1 nM and 3.4 nM | 23 nM and 54 nM and 33 nM and 29 nM and 14 nM and 35 nM | 3.2 nM and 4.3 nM and 2.5 nM and 3.3 nM and 7.7 nM
